Test results published in patent publication US20160194299A1 (priority 2013, published 2016).
Converted amounts (≈) assume the structure as drawn. Where two headings read alike, the source gives them in different places.

What was measured:
Mtb [1] = assay: microbe, parasite or virus in culture; assay type: cell-based, Mycobacterium tuberculosis; conditions: Mycobacterium tuberculosis, read-out: MIC (I)
Mtb [2] = assay: microbe, parasite or virus in culture; assay type: cell-based, Mycobacterium tuberculosis; conditions: Mycobacterium tuberculosis, read-out: MIC (III)
in vitro = conditions: African green monkey

CC(CN1CCOCC1)OC(=O)NC(=O)c1ccsc1NC(=O)c1nc2ccccc2s1 (stereo not drawn) [Compound 34]
MIC (Mtb [1]): > 3 µg/mL
MIC (Mtb [2]): 5 to 25 µg/mL (≈ 10.5 to 52.7 µM)
CC50 (in vitro): < 25 µg/mL

O=C(NC(=O)c1ccsc1NC(=O)c1nc2ccccc2s1)OC1COC1 [Compound 35]
MIC (Mtb [1]): < 1 µg/mL
MIC (Mtb [2]): > 25 µg/mL
CC50 (in vitro): < 25 µg/mL

CCOC(=O)NC(=O)c1ccsc1NC(=O)c1cc(NC(=O)C(C)(C)C)ncn1 [Compound 36]
MIC (Mtb [1]): 1 to 3 µg/mL (≈ 2.38 to 7.15 µM)
MIC (Mtb [2]): > 25 µg/mL
CC50 (in vitro): > 50 µg/mL

O=C(NC(=O)c1ccsc1NC(=O)c1nc2ccccc2s1)OCCF [Compound 37]
MIC (Mtb [1]): < 1 µg/mL
MIC (Mtb [2]): > 25 µg/mL
CC50 (in vitro): > 50 µg/mL

CC(C)OC(=O)NC(=O)c1ccsc1NC(=O)c1nc2ccccc2s1 [Compound 41]
MIC (Mtb [1]): < 1 µg/mL
MIC (Mtb [2]): > 25 µg/mL
CC50 (in vitro): < 25 µg/mL

CCOC(=O)NC(=O)c1ccsc1NC(=O)c1ccc2scnc2c1 [Compound 43]
MIC (Mtb [1]): < 1 µg/mL
MIC (Mtb [2]): 5 to 25 µg/mL (≈ 13.3 to 66.6 µM)
CC50 (in vitro): > 50 µg/mL

CCOC(=O)NC(=O)c1ccsc1NC(=O)c1ccnc(NC(=O)CN2CCOCC2)c1 [Compound 46]
MIC (Mtb [1]): < 1 µg/mL
MIC (Mtb [2]): > 25 µg/mL
CC50 (in vitro): > 50 µg/mL

CCOC(=O)NC(=O)c1ccsc1NC(=O)c1ccnc(NC(=O)N2CCS(=O)(=O)CC2)c1 [Compound 47]
MIC (Mtb [1]): < 1 µg/mL
MIC (Mtb [2]): > 25 µg/mL
CC50 (in vitro): > 50 µg/mL

O=C(NC(=O)c1ccsc1NC(=O)c1ccnc(NC(=O)N2CCOCC2)c1)OCCF [Compound 48]
MIC (Mtb [1]): < 1 µg/mL
MIC (Mtb [2]): > 25 µg/mL
CC50 (in vitro): > 50 µg/mL

CCOC(=O)NC(=O)c1ccsc1NC(=O)c1ccnc(NC(=O)N2CCN(C)CC2)c1.Cl.Cl [Compound 49]
MIC (Mtb [1]): 1 to 3 µg/mL
MIC (Mtb [2]): > 25 µg/mL
CC50 (in vitro): > 50 µg/mL

CCOC(=O)NC(=O)c1ccsc1NC(=O)c1ccnc(NC(=O)N2CCC(F)(F)CC2)c1 [Compound 50]
MIC (Mtb [1]): < 1 µg/mL
MIC (Mtb [2]): > 25 µg/mL
CC50 (in vitro): 25 to 50 µg/mL (≈ 51.9 to 104 µM)

CCOC(=O)NC(=O)c1ccsc1NC(=O)c1ccnc(NC(=O)N2CCCCC2)c1 [Compound 51]
MIC (Mtb [1]): < 1 µg/mL
MIC (Mtb [2]): > 25 µg/mL
CC50 (in vitro): 25 to 50 µg/mL (≈ 56.1 to 112 µM)

CCOC(=O)NC(=O)c1ccsc1NC(=O)c1ccc2sc(N3CCOCC3)nc2c1 [Compound 58]
MIC (Mtb [1]): < 1 µg/mL
MIC (Mtb [2]): 5 to 25 µg/mL (≈ 10.9 to 54.3 µM)
CC50 (in vitro): > 50 µg/mL

CCOC(=O)NC(=O)c1ccsc1NC(=O)c1ccc2sc(N3CCN(C)CC3)nc2c1 [Compound 59]
MIC (Mtb [1]): < 1 µg/mL
MIC (Mtb [2]): 5 to 25 µg/mL (≈ 10.6 to 52.8 µM)
CC50 (in vitro): > 50 µg/mL

CCOC(=O)NC(=O)c1cc(C)sc1NC(=O)c1ccc2scnc2c1 [Compound 62]
MIC (Mtb [1]): 1 to 3 µg/mL (≈ 2.57 to 7.7 µM)
MIC (Mtb [2]): > 25 µg/mL
CC50 (in vitro): 25 to 50 µg/mL (≈ 64.2 to 128 µM)

CCOC(=O)NC(=O)c1ccsc1NC(=O)c1ccc2cccnc2c1 [Compound 63]
MIC (Mtb [1]): < 1 µg/mL
MIC (Mtb [2]): 5 to 25 µg/mL (≈ 13.5 to 67.7 µM)
CC50 (in vitro): > 50 µg/mL

CCOC(=O)NC(=O)c1ccsc1NC(=O)C1=NNC(=O)CC1 [Compound 64]
MIC (Mtb [1]): < 1 µg/mL
MIC (Mtb [2]): < 5 µg/mL
CC50 (in vitro): > 50 µg/mL

CCOC(=O)NC(=O)c1ccsc1NC(=O)c1cnc2cc(C)nn2c1C [Compound 65]
MIC (Mtb [1]): < 1 µg/mL
MIC (Mtb [2]): < 5 µg/mL
CC50 (in vitro): > 50 µg/mL

CCOC(=O)NC(=O)c1ccsc1NC(=O)C1=Cc2cccc(OC)c2OC1 [Compound 66]
MIC (Mtb [1]): < 1 µg/mL
MIC (Mtb [2]): < 5 µg/mL
CC50 (in vitro): > 50 µg/mL

CCOC(=O)NC(=O)c1ccsc1NC(=O)C1=Cc2ccccc2OC1 [Compound 67]
MIC (Mtb [1]): < 1 µg/mL
MIC (Mtb [2]): < 5 µg/mL
CC50 (in vitro): > 50 µg/mL

CCOC(=O)NC(=O)c1ccsc1NC(=O)C1=Cc2cc(OC)ccc2OC1 [Compound 68]
MIC (Mtb [1]): < 1 µg/mL
MIC (Mtb [2]): < 5 µg/mL
CC50 (in vitro): > 50 µg/mL

CCOC(=O)NC(=O)c1ccsc1NC(=O)c1ccc2cccnc2n1 [Compound 69]
MIC (Mtb [1]): < 1 µg/mL
MIC (Mtb [2]): < 5 µg/mL
CC50 (in vitro): < 25 µg/mL

CCOC(=O)NC(=O)c1ccsc1NC(=O)C1COc2cc(OC)ccc2C1 (stereo not drawn) [Compound 70]
MIC (Mtb [1]): > 3 µg/mL
MIC (Mtb [2]): > 25 µg/mL
CC50 (in vitro): > 50 µg/mL

CCOC(=O)NC(=O)c1ccsc1NC(=O)C1COc2ccc(OC)cc2C1 (stereo not drawn) [Compound 71]
MIC (Mtb [1]): 1 to 3 µg/mL (≈ 2.47 to 7.42 µM)
MIC (Mtb [2]): < 5 µg/mL
CC50 (in vitro): > 50 µg/mL

CCOC(=O)NC(=O)c1ccsc1NC(=O)c1ccc2nccn2c1 [Compound 73]
MIC (Mtb [1]): 1 to 3 µg/mL (≈ 2.79 to 8.37 µM)
MIC (Mtb [2]): > 25 µg/mL
CC50 (in vitro): > 50 µg/mL

CCOC(=O)NC(=O)c1ccsc1NC(=O)c1noc(C)n1 [Compound 74]
MIC (Mtb [1]): > 3 µg/mL
MIC (Mtb [2]): > 25 µg/mL
CC50 (in vitro): 25 to 50 µg/mL (≈ 77.1 to 154 µM)

CCOC(=O)NC(=O)c1ccsc1NC(=O)c1ccc2ncoc2c1 [Compound 75]
MIC (Mtb [1]): > 3 µg/mL
MIC (Mtb [2]): > 25 µg/mL
CC50 (in vitro): > 50 µg/mL

CCOC(=O)NC(=O)c1ccsc1NC(=O)c1ccc2nccn2n1 [Compound 77]
MIC (Mtb [1]): 1 to 3 µg/mL (≈ 2.78 to 8.35 µM)
MIC (Mtb [2]): > 25 µg/mL
CC50 (in vitro): > 50 µg/mL

CCOC(=O)NC(=O)c1ccsc1NC(=O)c1nc2cnccc2s1 [Compound 82]
MIC (Mtb [1]): < 1 µg/mL
MIC (Mtb [2]): < 5 µg/mL
CC50 (in vitro): > 50 µg/mL

CCOC(=O)NC(=O)c1ccsc1NC(=O)c1nc2cccnc2s1 [Compound 83]
MIC (Mtb [1]): < 1 µg/mL
MIC (Mtb [2]): < 5 µg/mL
CC50 (in vitro): > 50 µg/mL

CCOC(=O)NC(=O)c1ccsc1NC(=O)c1nc2c(s1)CNCC2 [Compound 84]
MIC (Mtb [1]): 1 to 3 µg/mL (≈ 2.63 to 7.89 µM)
MIC (Mtb [2]): > 25 µg/mL
CC50 (in vitro): > 50 µg/mL

CCOC(=O)NC(=O)c1ccsc1NC(=O)c1nc2c(s1)CCN(C)C2 [Compound 85]
MIC (Mtb [1]): 1 to 3 µg/mL (≈ 2.53 to 7.6 µM)
MIC (Mtb [2]): < 5 µg/mL
CC50 (in vitro): > 50 µg/mL

CCOC(=O)NC(=O)c1ccsc1NC(=O)c1ccnnc1 [Compound 86]
MIC (Mtb [1]): 1 to 3 µg/mL (≈ 3.12 to 9.37 µM)
MIC (Mtb [2]): 5 to 25 µg/mL (≈ 15.6 to 78 µM)
CC50 (in vitro): > 50 µg/mL

CCOC(=O)NC(=O)c1ccsc1NC(=O)c1cnc2ccccc2n1 [Compound 87]
MIC (Mtb [1]): < 1 µg/mL
MIC (Mtb [2]): < 5 µg/mL
CC50 (in vitro): > 50 µg/mL

CCOC(=O)NC(=O)c1ccsc1NC(=O)c1sc2ccccc2c1Cl [Compound 88]
MIC (Mtb [1]): < 1 µg/mL
MIC (Mtb [2]): 5 to 25 µg/mL (≈ 12.2 to 61.1 µM)
CC50 (in vitro): > 50 µg/mL

CCOC(=O)NC(=O)c1ccsc1NC(=O)c1ccc2ncccc2c1 [Compound 89]
MIC (Mtb [1]): 1 to 3 µg/mL (≈ 2.71 to 8.12 µM)
MIC (Mtb [2]): 5 to 25 µg/mL (≈ 13.5 to 67.7 µM)
CC50 (in vitro): > 50 µg/mL

CCOC(=O)NC(=O)c1ccsc1NC(=O)c1cc2ccccc2s1 [Compound 90]
MIC (Mtb [1]): < 1 µg/mL
MIC (Mtb [2]): < 5 µg/mL
CC50 (in vitro): 25 to 50 µg/mL (≈ 66.8 to 134 µM)

CCOC(=O)NC(=O)c1ccsc1NC(=O)c1ccc(=O)[nH]n1 [Compound 91]
MIC (Mtb [1]): 1 to 3 µg/mL (≈ 2.97 to 8.92 µM)
MIC (Mtb [2]): < 5 µg/mL
CC50 (in vitro): > 50 µg/mL

CCOC(=O)NC(=O)c1ccsc1NC(=O)C1COc2ccccc2O1 (stereo not drawn) [Compound 92]
MIC (Mtb [1]): > 3 µg/mL
MIC (Mtb [2]): 5 to 25 µg/mL (≈ 13.3 to 66.4 µM)
CC50 (in vitro): 25 to 50 µg/mL (≈ 66.4 to 133 µM)

CCOC(=O)NC(=O)c1ccsc1NC(=O)c1cn2ncccc2n1 [Compound 93]
MIC (Mtb [1]): < 1 µg/mL
MIC (Mtb [2]): < 5 µg/mL
CC50 (in vitro): > 50 µg/mL

CCOC(=O)NC(=O)c1ccsc1NC(=O)c1nc2cnc(C)cc2s1 [Compound 94]
MIC (Mtb [1]): < 1 µg/mL
MIC (Mtb [2]): > 25 µg/mL
CC50 (in vitro): > 50 µg/mL

CCOC(=O)NC(=O)c1ccsc1NC(=O)c1nc2c(s1)CCN(c1ccccc1)C2 [Compound 97]
MIC (Mtb [1]): < 1 µg/mL
MIC (Mtb [2]): > 25 µg/mL
CC50 (in vitro): > 50 µg/mL

C=CCOC(=O)NC(=O)c1ccsc1NC(=O)c1nc2cnccc2s1 [Compound 99]
MIC (Mtb [1]): < 1 µg/mL
MIC (Mtb [2]): < 5 µg/mL
CC50 (in vitro): 25 to 50 µg/mL (≈ 64.4 to 129 µM)

C#CCOC(=O)NC(=O)c1ccsc1NC(=O)c1nc2cnccc2s1 [Compound 100]
MIC (Mtb [1]): < 1 µg/mL
MIC (Mtb [2]): > 25 µg/mL
CC50 (in vitro): 25 to 50 µg/mL (≈ 64.7 to 129 µM)

O=C(NC(=O)c1ccsc1NC(=O)c1nc2cnccc2s1)OCc1ccccc1 [Compound 101]
MIC (Mtb [1]): < 1 µg/mL
MIC (Mtb [2]): 5 to 25 µg/mL (≈ 11.4 to 57 µM)
CC50 (in vitro): > 50 µg/mL

O=C(NC(=O)c1ccsc1NC(=O)c1nc2cnccc2s1)OC1CCOC1 (stereo not drawn) [Compound 102]
MIC (Mtb [1]): < 1 µg/mL
MIC (Mtb [2]): < 5 µg/mL
CC50 (in vitro): > 50 µg/mL

COCCOC(=O)NC(=O)c1ccsc1NC(=O)c1nc2cnccc2s1 [Compound 103]
MIC (Mtb [1]): < 1 µg/mL
MIC (Mtb [2]): > 25 µg/mL
CC50 (in vitro): > 50 µg/mL

CC(C)OC(=O)NC(=O)c1cc(F)sc1NC(=O)c1nc2cnccc2s1 [Compound 104]
MIC (Mtb [1]): < 1 µg/mL
MIC (Mtb [2]): < 5 µg/mL
CC50 (in vitro): < 25 µg/mL

CCOC(=O)NC(=O)c1ccsc1NC(=O)c1cccc2cccnc12 [Compound 112]
MIC (Mtb [1]): > 3 µg/mL
MIC (Mtb [2]): > 25 µg/mL
CC50 (in vitro): > 50 µg/mL

CCOC(=O)NC(=O)c1ccsc1NC(=O)c1ccc2cnccc2n1 [Compound 113]
MIC (Mtb [1]): > 3 µg/mL
MIC (Mtb [2]): > 25 µg/mL
CC50 (in vitro): > 50 µg/mL
